This is an account of results in patent US12065443B2, “Compounds and pharmaceutical compositions thereof for the treatment of diseases” (priority 2017, dated 2024).

Read-outs that look alike come from different tables or passages of the source.

The test system of assay [1] is LPS driven TNFα secretion in Peripheral Blood Mononuclear Cells (PBMC). The assay can be described thus: cells. The format is cell-based. The note with it: Homo sapiens, LPS 1 ng/mL, supernatant after 18-20 h, ELISA.
Experimental: This assay measures the inhibition of LPS driven TNFα secretion by a test compound in Peripheral Blood Mononuclear Cells (PBMC), which in turn correlates with SIK inhibition.
PBMCs are isolated from human blood samples (buffy coats). The buffy coat is aseptically transferred into a 50 mL Falcon™ tube, and diluted 1/2 in Phosphate Buffered Saline (PBS). […] The tubes are centrifuged for 35 min at 400× g in temperature controlled centrifuge, without brake, at 25° C. PBMCs are aspirated from the white interface layer between sample and Lymphoprep. PBMCs are washed five times in PBS. […] The PBMCs are finally seeded at 400,000 PBMC/160 μL/96-well.
A compound dilution plate is made in 100% DMSO by 3-fold dilution of 10 mM stock solution of test compound. An intermediate dilution plate (10× final concentration) is made by diluting the compound dilution plate 50-fold in RPMI medium.
20 μL of the 10× final concentration compound is added to the cells and incubated for 1 hour at 37° C. before addition of trigger. No trigger conditions/trigger conditions are spiked with equal final DMSO concentrations of 0.2% DMSO. 20 μL of 10×LPS (final concentration 1 ng/mL) solution are added to all wells except for the ‘no trigger wells’ where 20 μL medium is added. Supernatant is collected after 18-20 h for IL-10 and TNFα determination using ELISA.
The plate is then washed once with PBST (PBS+0.05% Tween20) and once with PBS followed by the addition of 100 μL of blocking buffer (1% Bovine Serum Albumin (BSA)-5% Sucrose) and plates are sealed and incubated for at least 4 h at RT. After washing the plate once with PBST and once with PBS, 40 μL of standard or sample are added (TNFα standard curve is prepared using a 1/2 serial dilution starting from 16000 pg/mL; dilutions are made in dilution buffer (PBS+1% BSA)). Plates are washed twice with PBST, and once with PBS, after which 35 μL of the detection antibody is added (final concentration 0.25 μg/mL diluted in dilution buffer) and plates are incubated for at least 2 h at RT. Plates are washed twice with PBST, and once with PBS, where after 35 μL of Strep-HRP conjugate (0.5 μg/mL final concentration diluted in dilution buffer) is added. Plates are incubated in the dark, at RT for at least 45 min but no longer than 1 hour. Plates are washed twice with PBST, and once with PBS. Thereafter, 50 μL of luminol substrate is added to each well (prepared according to manufacturer's instructions), and incubated for 5 min at RT protected from light.
To measure the inhibition of LPS induced TNFα, percentage inhibition (PIN) values are calculated for all concentrations tested, compared to controls.
PIN values are plotted in concentration-response and EC50 values are derived using GraphPad Prism Software, applying 4-parameter nonlinear regression (sigmoidal) curve fitting.
Assay [2] has as its target T1, SIK2 (Homo sapiens, UniProt Q9H0K1).
T1 construct: purchased ThermoFisher Scientific PV4792
In words: biochemical. The note with it: 33P radioactive SIK kinase assay, AMARA peptide, 10 μM ATP. The procedure, abridged: (§1)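 AMARA peptide phosphorylation by SIK1–3 is quantified through ^33P uptake from a labeled/unlabeled ATP blend. Staurosporine at 10 μM final defines full inhibition, 1% DMSO the uninhibited signal. Quench uses phosphoric acid; counting follows filter capture.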

Assay [3] has as its target T2, SIK3 (Homo sapiens, UniProt Q9Y2K2).
T2 construct: purchased SignalChem S12-11G-100
The assay can be described thus: biochemical. The gist of the method:
as §1

Assay [4] has as its target T3, SIK1 (Homo sapiens, UniProt P57059).
T3 construct: purchased Carna Biosciences 02-131
The assay can be described thus: biochemical. The procedure, abridged:
as §1

For assay [5], the system named is LPS-induced TNFα secretion in monocyte-derived macrophages (MdM). In words: MdM assay: LPS-triggered TNFα (ELISA). It counts as cell-based, human. The note with it: Homo sapiens, Macrophage, LPS-triggered TNFα inhibition. The procedure, abridged:
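Human CD14+ monocytes isolated from buffy-coat PBMCs by magnetic beads, differentiated to macrophages; on day 10 compound preincubated 1 h at 37 °C, then LPS 200 ng/mL added (0.2% DMSO). Supernatant taken after 20 h; TNFα quantified by sandwich ELISA against standard curve.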

Assay [6] concerns LPS triggered IL-10 secretion in monocyte-derived macrophages (MdM). The assay can be described thus: MdM assay: LPS-triggered IL-10 (ELISA). Conditions: maximal fold change vs LPS only, median across assays. The format is cell-based, human. The gist of the method:
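CD14+ monocytes isolated from human buffy-coat PBMCs and differentiated to macrophages for 10 days. Cells pre-treated with compound 1 h at 37° C (0.2% DMSO), then stimulated with 200 ng/mL LPS; IL-10 in supernatant at 2 h measured by ELISA (A450). Maximal fold change versus LPS only reported as median of two or more runs.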
A general note: In an ELISA, binding on a coated surface is turned into a signal by an enzyme label.

Assay [7] concerns the target T1, SIK2. In words: biochemical. Conditions: ADP-Glo SIK kinase assay. The procedure, abridged:
(§2)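 ADP-Glo luminescent assay of ADP formed by SIK2 or SIK3 with substrate after ATP addition, 120 min at RT. Remaining ATP depleted 40 min, then ADP converted to ATP and read by luciferase luminescence after 30 min. Controls: 1% DMSO and 10 μM staurosporine (final).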
A general note: ADP-Glo turns the ADP formed in a reaction into a luminescent signal.

For assay [8], the target named is T2, SIK3. In words: biochemical. The note with it: ADP-Glo SIK kinase assay. The procedure, abridged:
as §2

For assay [9], the target named is T3, SIK1. In words: biochemical. Conditions: ADP-Glo SIK kinase assay. The procedure, abridged: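 Wells with 1% DMSO or 10 μM staurosporine (final) define the control window. The kinase reaction with substrate and ATP runs 120 min at RT, followed by ADP-Glo detection: ATP depletion (40 min) and ADP-derived luminescence (30 min).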
The mark [10] stands for this setting: 33P radioactive SIK kinase assay, AMARA peptide, 10 μM ATP, read-out: SIK1 IC50.

T3 sequence (P57059 whole entry): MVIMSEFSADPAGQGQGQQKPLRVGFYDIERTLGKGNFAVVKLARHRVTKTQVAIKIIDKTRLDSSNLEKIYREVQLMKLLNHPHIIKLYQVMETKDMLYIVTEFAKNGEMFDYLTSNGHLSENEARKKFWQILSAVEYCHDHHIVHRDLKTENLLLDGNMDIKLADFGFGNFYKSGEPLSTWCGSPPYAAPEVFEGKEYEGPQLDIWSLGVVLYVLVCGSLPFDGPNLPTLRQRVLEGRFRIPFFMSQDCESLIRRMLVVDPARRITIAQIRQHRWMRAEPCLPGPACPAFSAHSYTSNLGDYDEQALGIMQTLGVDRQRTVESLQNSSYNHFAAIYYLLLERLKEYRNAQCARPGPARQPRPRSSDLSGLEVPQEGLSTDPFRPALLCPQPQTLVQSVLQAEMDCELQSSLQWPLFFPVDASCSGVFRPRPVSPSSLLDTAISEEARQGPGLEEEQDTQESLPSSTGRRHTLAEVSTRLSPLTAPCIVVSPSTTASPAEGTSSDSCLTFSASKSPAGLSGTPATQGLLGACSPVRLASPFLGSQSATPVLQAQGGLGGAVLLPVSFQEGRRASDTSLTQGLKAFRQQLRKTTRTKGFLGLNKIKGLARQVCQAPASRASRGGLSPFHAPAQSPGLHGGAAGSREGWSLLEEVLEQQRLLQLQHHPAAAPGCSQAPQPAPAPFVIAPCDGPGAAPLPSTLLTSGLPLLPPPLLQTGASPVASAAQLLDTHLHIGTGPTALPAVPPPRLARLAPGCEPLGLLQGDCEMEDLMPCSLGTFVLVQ
T2 sequence (Q9Y2K2 whole entry): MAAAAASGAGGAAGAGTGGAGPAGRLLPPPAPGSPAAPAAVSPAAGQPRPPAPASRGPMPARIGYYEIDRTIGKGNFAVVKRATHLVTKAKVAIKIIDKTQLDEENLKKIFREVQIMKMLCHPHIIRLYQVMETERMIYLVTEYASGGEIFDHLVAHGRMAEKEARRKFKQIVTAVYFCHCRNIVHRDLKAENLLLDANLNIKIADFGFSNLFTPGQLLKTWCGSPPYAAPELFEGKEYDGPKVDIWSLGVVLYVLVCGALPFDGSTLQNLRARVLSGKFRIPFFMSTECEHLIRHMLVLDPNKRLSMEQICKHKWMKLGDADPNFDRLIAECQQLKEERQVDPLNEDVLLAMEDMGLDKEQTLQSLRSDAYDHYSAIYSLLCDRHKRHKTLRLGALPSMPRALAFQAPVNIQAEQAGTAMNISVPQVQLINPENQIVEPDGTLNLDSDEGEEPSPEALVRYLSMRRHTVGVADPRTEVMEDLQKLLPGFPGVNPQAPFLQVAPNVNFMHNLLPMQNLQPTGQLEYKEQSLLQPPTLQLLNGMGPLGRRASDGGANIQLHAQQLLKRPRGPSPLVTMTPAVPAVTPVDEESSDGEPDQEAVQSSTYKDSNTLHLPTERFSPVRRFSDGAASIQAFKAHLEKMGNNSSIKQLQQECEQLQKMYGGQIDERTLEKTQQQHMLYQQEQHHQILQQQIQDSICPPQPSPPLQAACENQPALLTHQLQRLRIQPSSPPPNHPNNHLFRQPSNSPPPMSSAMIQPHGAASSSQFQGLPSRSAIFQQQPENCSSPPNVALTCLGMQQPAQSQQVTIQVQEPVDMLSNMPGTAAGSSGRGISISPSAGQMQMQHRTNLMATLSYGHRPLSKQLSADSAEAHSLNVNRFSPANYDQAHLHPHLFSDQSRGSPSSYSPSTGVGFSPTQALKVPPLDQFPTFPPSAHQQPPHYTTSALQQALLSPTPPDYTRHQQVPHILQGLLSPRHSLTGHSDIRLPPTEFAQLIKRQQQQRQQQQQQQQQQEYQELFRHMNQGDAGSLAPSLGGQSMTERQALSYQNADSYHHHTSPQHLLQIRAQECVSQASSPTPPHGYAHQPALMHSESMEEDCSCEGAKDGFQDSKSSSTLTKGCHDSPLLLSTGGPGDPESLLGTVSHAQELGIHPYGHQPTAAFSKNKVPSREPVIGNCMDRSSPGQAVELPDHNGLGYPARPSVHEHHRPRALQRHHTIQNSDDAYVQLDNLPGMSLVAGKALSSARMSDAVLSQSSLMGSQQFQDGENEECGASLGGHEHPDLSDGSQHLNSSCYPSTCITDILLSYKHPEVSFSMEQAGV
T1 sequence (Q9H0K1 whole entry): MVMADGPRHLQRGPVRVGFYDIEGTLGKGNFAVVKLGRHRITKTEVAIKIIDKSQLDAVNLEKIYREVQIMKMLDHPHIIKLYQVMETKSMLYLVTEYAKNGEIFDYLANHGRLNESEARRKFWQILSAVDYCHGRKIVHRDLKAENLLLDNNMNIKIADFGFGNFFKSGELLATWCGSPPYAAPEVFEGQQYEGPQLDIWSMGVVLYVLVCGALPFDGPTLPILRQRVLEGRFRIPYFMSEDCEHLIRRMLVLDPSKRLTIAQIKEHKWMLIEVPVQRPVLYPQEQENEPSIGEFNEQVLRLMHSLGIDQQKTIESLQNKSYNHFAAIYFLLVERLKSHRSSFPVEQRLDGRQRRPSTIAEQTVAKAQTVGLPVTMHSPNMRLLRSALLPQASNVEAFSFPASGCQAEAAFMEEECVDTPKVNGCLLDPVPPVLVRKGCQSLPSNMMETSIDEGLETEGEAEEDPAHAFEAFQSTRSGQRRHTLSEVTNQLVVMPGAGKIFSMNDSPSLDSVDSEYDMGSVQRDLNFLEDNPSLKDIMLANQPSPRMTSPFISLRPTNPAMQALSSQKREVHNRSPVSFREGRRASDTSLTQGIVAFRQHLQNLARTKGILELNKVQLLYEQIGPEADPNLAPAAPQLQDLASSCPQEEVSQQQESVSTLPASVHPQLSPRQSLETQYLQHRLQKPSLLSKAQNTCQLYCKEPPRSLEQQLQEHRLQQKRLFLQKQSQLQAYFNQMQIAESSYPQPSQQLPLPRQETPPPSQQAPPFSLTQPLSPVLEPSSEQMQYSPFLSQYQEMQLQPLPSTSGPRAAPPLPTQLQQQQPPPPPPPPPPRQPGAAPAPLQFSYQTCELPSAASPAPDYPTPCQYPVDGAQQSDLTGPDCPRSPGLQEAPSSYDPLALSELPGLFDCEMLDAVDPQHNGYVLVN

On to `COc1cc(-c2cnc3cc(-c4cnn(C)c4)cnn23)cc(OC)c1C(=O)NCC(F)(F)F` [compound 107], for which the figures for the EC50 in [1] and in assay [5] were 0.1 to 100 nM and 100 to 1000 nM, respectively. The figures for the IC50 at SIK2 [2], on SIK3 [3] and on SIK1 [4] (setting [10]) were 0.01 to 10 nM, 0.01 to 10 nM and 10 to 100 nM, respectively.
For `COc1cc(-n2cnc3cc(-c4cnn(C(C)C)c4)ccc32)cc(OC)c1C(=O)NCC(F)(F)F` [compound 95, 4-[5-(1-isopropylpyrazol-4-yl)benzimidazol-1-yl]-2,6-dimethoxy-N-(2,2,2-trifluoroethyl)benzamide], the 50% effective concentration (EC50) in assay [1] and in assay [5] was 0.1 to 100 nM throughout. Further, the values for the IC50 on SIK2 [2], at SIK3 [3] and on SIK1 [4] were 0.01 to 10 nM, 0.01 to 10 nM and 10 to 100 nM, respectively.
With `COc1cc(-n2cnc3cc(-c4cnn(C(F)F)c4)ccc32)cc(OC)c1C(=O)NCC(F)(F)F` [compound 97, 4-[5-[1-(difluoromethyl)pyrazol-4-yl]benzimidazol-1-yl]-2,6-dimethoxy-N-(2,2,2-trifluoroethyl)benzamide], the concentration for a half-maximal effect (EC50) in assay [1] and in assay [5] was 0.1 to 100 nM throughout. Also, the concentration for half-maximal inhibition (IC50) (in general, the midpoint of a concentration-inhibition curve) lay within 0.01 to 10 nM on SIK2 [2], 0.01 to 10 nM against SIK3 [3] and 10 to 100 nM on SIK1 [4] (setting [10]).
As for `COc1cc(-n2cnc3cc(-c4cc(C)no4)ccc32)cc(OC)c1C(=O)NCC(F)(F)F` [compound 109, 2.6-dimethoxy-4-[5-(3-methylisoxazol-5-yl)benzimidazol-1-yl]-N-(2,2,2-trifluoroethyl)benzamide], the EC50 in assay [1] and in assay [5] was 100 to 1000 nM throughout. Also, the IC50 at SIK2 [2], against SIK3 [3] and at SIK1 [4] (setting [10]) was 10 to 100 nM in each case.
In the case of `COc1cc(-c2cnn3cc(-c4cnn(C)c4)ccc23)cc(OC)c1C(=O)NCC(F)(F)F` [compound 99, 2,6-dimethoxy-4-[6-(1-methylpyrazol-4-yl)pyrazolo[1,5-a]pyridin-3-yl]-N-(2,2,2-trifluorocthyl)benzamide], the EC50 in assay [1] and in [5] was 0.1 to 100 nM each time. For the same compound, the half-maximal inhibitory concentration (IC50) on SIK2 [2], at SIK3 [3] and at SIK1 [4] (setting [10]) was 0.01 to 10 nM throughout.
With `COc1cc(-n2cnc3cc(-c4cc(C)n[nH]4)ccc32)cc(OC)c1C(=O)NCC(F)(F)F` [compound 101, 2,6-dimethoxy-4-[5-(3-methyl-1H-pyrazol-5-yl)benzimidazol-1-yl]-N-(2,2,2-trifluoroethyl)benzamide], the EC50 in assay [1] and in assay [5] was 0.1 to 100 nM throughout. Further, the IC50 on SIK2 [2] fell in the range of 0.01 to 10 nM; against SIK3 [3], 0.01 to 10 nM; at SIK1 [4] (setting [10]), 10 to 100 nM.
`COc1cc(-n2cnc3cc(-c4cnn(C5CNC5)c4)ccc32)cc(OC)c1C(=O)NCC(F)(F)F` [Cpd 94, 4-[5-[1-(azetidin-3-yl)pyrazol-4-yl]benzimidazol-1-yl]-2,6-dimethoxy-N-(2,2,2-trifluoroethyl)benzamide]: the figures for the EC50 in assay [1] and in assay [5] were 0.1 to 100 nM and 100 to 1000 nM, respectively. Besides, the IC50 at SIK2 [2], on SIK3 [3] and on SIK1 [4] (setting [10]) was 0.01 to 10 nM in each case.
On to `COc1cc(-n2cnc3cc(-c4cnn(CC(C)C)c4)ccc32)cc(OC)c1C(=O)NCC(F)(F)F` [Cpd 110, 4-[5-(1-isobutylpyrazol-4-yl)benzimidazol-1-yl]-2,6-dimethoxy-N-(2,2,2-trifluoroethyl)benzamide], for which the concentration giving a half-maximal response (EC50) (commonly the concentration giving half of the maximal effect) in assay [1] fell in the range of 0.1 to 100 nM; in [5], 100 to 1000 nM. Moreover, the IC50 was 0.01 to 10 nM at SIK2 [2], 0.01 to 10 nM at SIK3 [3] and 10 to 100 nM on SIK1 [4] (setting [10]).
`COc1cc(-c2cnc3cc(-c4cn[nH]c4)ccn23)cc(OC)c1C(=O)NCC(F)(F)F` [compound 227, 2,6-dimethoxy-4-[7-(1H-pyrazol-4-yl)imidazo[1,2-a]pyridin-3-yl]-N-(2,2,2-trifluoroethyl)benzamide]: in assay [6], the “IL-10 FCmax median” value is “+++ (>4.5)”. Moreover, the half-maximal inhibitory concentration (IC50) at SIK2 [2], against SIK3 [3], at SIK1 [4] (setting [10]), against SIK2 [7], against SIK3 [8] and at SIK1 [9] was 0.01 to 10 nM each time. For the same compound, in assay [5], the EC50 lay in the range of 0.1 to 100 nM.
